Assays:
[1] = Toxicity of increasing doses in the drinking water
old female mice = test: Chronic oral administration in drinking water, aging-related adiposity, body weight (Table 8); type: in vivo, BALB/cJ X C57BL/6 F1 female mice; conditions: n=15, Mean ± SD
Excerpt: With other words, progressive alteration of pineal-hypothalamic-pituitary-peripheral endocrine glands function in the course of aging leads to the most typical appearance of decreased tolerance to glucose (hyperglycemia), increased levels of lipids, in particular triglycerides and cholesterol (hyperlipidemia) and progressive accumulation of fat, which is not obesity but the most common expression of hormonal derangements. TRH taken chronically will maintain normal body weight in normal aging mice, while the normal controls put on fat and weight.
The results reported in Table 8 clearly support the presumption that TRH is also capable of preventing onset of aging-related adiposity in humans.

[2] = tested on: anterior hypothalamic area (AHA)-lesioned obese mice; test: 48-day intraperitoneal treatment of AHA-lesioned obese mice, body weight (Table 5); type: in vivo, C57BL/6 female mice; conditions: N=4, Mean ± SD
Protocol: C57BL/6 female mice aged 8 months (AHA-lesioned at 2 months of age to induce obesity), were injected intraperitoneally for 48 days at 6 pm (evening) with 0.5 ml volume containing 10 µg TRH-tartrate in bidistilled water. Controls were injected with the same amount of diluent.

[3] = 20-day intraperitoneal treatment, blood levels of T3, T4 and TSH by radioimmunoassay in serum (Table 7); type: in vivo, C57BL/6 male mice; conditions: for T3 / T4 / TSH (µU/mL): serum, Mean ± SD
Protocol: This is shown by Table 7 hereafter which report the results of assays which were ran under the following conditions.
C57BL/6 male mice aged 9 months, were injected intraperitonealy for 20 days at 6 p.m. (evening) or at 8 a.m. (morning) with 0.5 ml volumes containing either 10 µg or 100 µg of TRH in bidistilled water. Controls were injected with the same amount of diluent. The mice were bled from the retroorbital venus plexus under rapid acute ether anaesthesia at 10 a.m. T3, T4 and TSH were measured by radioimmunoassay in the serum of individual mice. TABLE 7: […]

[4] = aging mice (18 month-old mice) compared with young, e.g. three month-old mice; cited from earlier work
[5] = tested on: obese, anterior hypothalamic area (AHA)-lesioned mice; test: 20-day intraperitoneal treatment of obese AHA-lesioned mice, body weight (Table 3); type: in vivo, C57BL/6 male mice; conditions: N=6, Mean ± SD; for Body weight (g): p<0.05 vs before treatment
Protocol: C57BL/6 male mice aged 7 months (AHA-lesioned at 2 months of age to induce obesity), were injected intraperitoneally for 20 days at 6 pm (evening) with 0.5 ml volume containing 10 µg TRH-tartrate in bidistilled water. Controls were injected with the same amount of diluent.

[6] = 2 months treatment, blood levels of cholesterol and triglycerides in old mice (Table 9); type: in vivo, BALB/cJ female mice; conditions: 2 months treatment started in 20-month-old female mice, n = 10, dosages as for Table 7
Excerpt: Evidence that the lipid related compounds whose proportions in the blood circulation of old mice have a cause different from those observed in young mice treated with TRH seems further indicated by the fact that the weight of 16 month-old female mice, thus older mice which tend to accumulate age-related adiposity, can also be controlled and even reduced by the adsorption of TRH (see table 8). Indeed the contents in lipid-related compounds in the blood circulation of older mice (20 month-old mice) treated with TRH remain substantially unaltered, as evidenced by the results shown in Table 9 hereafter. The dosages of TRH were the same as in the assay reported in relation to Table 7.

[7] = TRH evening (6 p.m.) 10 µg i.p. for 20 days
[8] = TRH evening (6 p.m.) 100 µg i.p. for 20 days
[9] = TRH morning (8 a.m.) 10 µg i.p. for 20 days
[10] = TRH morning (8 a.m.) 100 µg i.p. for 20 days

## COc1ccc2[nH]cc(CCNC(C)=O)c2c1 [melatonin]
[1]
  toxicity: not toxic

## (pyro)Glu-His-Pro NH2 [TRH]
Old female mice; 16 month-old female mice
  Body weight (g) before treatment: 33.1 ± 3.2 (15) g
Old female mice; TRH-tartrate in the drinking water (100µg/ml) for 5 months, started at 16 months of age
  Body weight (g) after treatment: 33.8 ± 4.0 (15) g
[2]; After 27 days of treatment, 10 µg TRH-tartrate i.p. daily at 6 pm
  Body weight: 39.2 ± 7.2 g
[2]; After 48 days of treatment, 10 µg TRH-tartrate i.p. daily at 6 pm, p<0.05 vs before treatment
  Body weight (g): 32.6 ± 4.4^∗ g
[2]; Before treatment, AHA-lesioned female mice aged 8 months
  Body weight: 42.2 ± 6.4 g
[3]; [7]
  T3: 0.82 ± 0.08 nmol/L
  T4: 65.7 ± 4.2 nmol/L
  TSH (µU/mL): 0.005 ± 0.004 µU/mL
[3]; [8]
  T3: 0.91 ± 0.02 nmol/L
  T4: 68.7 ± 13.1 nmol/L
  TSH (µU/mL): 0.004 ± 0.005 µU/mL
[3]; [9]
  T3: 1.03 ± 0.07 nmol/L
  T4: 82.0 ± 1.9 nmol/L
  TSH (µU/mL): 0.009 ± 0.006 µU/mL
[3]; [10]
  T3: 0.84 ± 0.02 nmol/L
  T4: 74.9 ± 13.3 nmol/L
  TSH (µU/mL): 0.007 ± 0.005 µU/mL
[3]; injected at huge dosages (up to 100 µg i.p. for 20 days)
  acute toxicity: lack of acute toxicity
[4]
  levels of cholesterol, triglycerids and phospholipids: brought back to values currently observed in young mice
[5]; After 10 days of treatment, 10 µg TRH-tartrate i.p. daily at 6 pm
  Body weight: 33.7 ± 4.2 g
[5]; After 20 days of treatment, 10 µg TRH-tartrate i.p. daily at 6 pm
  Body weight (g): 32.0 ± 3.6^∗ g
[5]; After withdrawal period of 5 days following 20-day treatment
  Body weight (g): 31.1 ± 3.4^∗ g
[5]; After withdrawal period of 60 days following 20-day treatment
  Body weight: 38.3 ± 5.9 g
[5]; Before treatment, AHA-lesioned male mice aged 7 months
  Body weight: 39.0 ± 6.2 g
[6]
  CHOLESTEROL: 1.65 ± 0.29 mmol/L
  TRIGLYCERIDES: 1.19 ± 0.46 mmol/L
